Data from patent publication US20230192617A1, “AZABICYCLIC(THIO)AMIDES AS FUNGICIDAL COMPOUNDS” (Bayer CropScience Aktiengesellschaft, priority 2020, published 2023).

Experiments:
Alternaria brassicae = test: In vivo preventive test on Alternaria brassicae (leaf spot on radish or cabbage); conditions: 500 ppm of active ingredient, preventive spray on radish or cabbage, evaluated 3 to 4 days after inoculation, read-out: efficacy
Summary of the method: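 Protective spray on young radish or cabbage: actives in water diluted from DMSO/acetone/Tween 80, with solvent-only controls. Leaves were challenged after 24 h with a spore suspension, and plants were held at 100% RH, 20 °C for 3 to 4 days.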

Botrytis cinerea [1] = test: In vivo preventive test on Botrytis cinerea (grey mould); conditions: 500 ppm of active ingredient, preventive spray on gherkin or cabbage, evaluated 4 to 5 days after inoculation, read-out: efficacy
Summary of the method: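 Preventive spray on cabbage or gherkin seedlings, with compound formulated in DMSO/acetone/Tween 80 and water-diluted, preceded spore inoculation by 24 hours. Cabbage was held 4 to 5 days at 20° C., 100% relative humidity; gherkin 4 to 5 days at 17° C., 90% relative humidity.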

Alternaria alternata = Alternaria alternata in vitro cell test; assay type: cell-based; conditions: 120 h, 20 ppm of active ingredient, liquid culture, 5 days incubation, spectrometric measurement of mycelium growth, read-out: efficacy (inhibition of fungal growth)
Summary of the method: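 Spectrometric readout of mycelial growth after 5-day incubation gauged compound effects on spore germination and growth of A. alternata in liquid medium. Compounds were delivered in DMSO at ≤1% final. Absorbance was compared with untreated controls to give inhibition.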

[2] = system: Colletotrichum lindemuthianum; test: B-8. Colletotrichum lindemuthianum in vitro cell test; assay type: cell-based; conditions: 144 h, 20 ppm of active ingredient, 6 days incubation, liquid culture, absorbance, read-out: efficacy (inhibition of fungal growth)
Summary of the method: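 Liquid-culture germination/growth test: compounds in ≤1% final DMSO were added to spore-containing medium. Fungal growth was quantified spectrophotometrically after 6 days of incubation and expressed as inhibition versus untreated controls.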

[3] = Measurement of Log P values by HPLC on reversed phase columns (EEC directive 79/831 Annex V.A8); assay type: physicochemical; conditions: reversed phase HPLC column, method [a]: LC-UV, acidic range, 0.1% formic acid in water and acetonitrile as eluent
Summary of the method: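 Log P derived from retention on reversed-phase columns (EEC directive 79/831 Annex V.A8), LC-UV, acetonitrile gradient 10% to 95% against water containing 0.1% formic acid, 0.001 M ammonium acetate, or 0.1% phosphoric acid; several values per method separated by "+".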

[4] = system: Colletotrichum lindemuthianum; test: In vivo preventive test on Colletotrichum lindemuthianum (leaf spot on bean); conditions: 168 h, 500 ppm of active ingredient, preventive spray on bean, evaluated 7 days after inoculation, read-out: efficacy
Procedure: B-5. In Vivo Preventive Test on Colletotrichum lindemuthianum (Leaf Spot on Bean) [table] The active ingredients were made soluble and homogenized in a mixture of Dimethyl sulfoxide/Acetone/Tween® 80 and then diluted in water to the desired concentration. The young plants of bean were treated by spraying the active ingredient prepared as described above. Control plants were treated only with an aqueous solution of Acetone/Dimethyl sulfoxide/Tween® 80. After 24 hours, the plants were contaminated by spraying the leaves with an aqueous suspension of Colletotrichum lindemuthianum spores. The contaminated bean plants were incubated for 24 hours at 20° C. and at 100% relative humidity and then for 6 days at 20° C. and at 90% relative humidity.

Sphaerotheca fuliginea = test: In vivo preventive test on Sphaerotheca fuliginea (powdery mildew on cucurbits); conditions: Podosphaera fuliginea, 192 h; 500 ppm of active ingredient; preventive spray on gherkin; evaluated 8 days after inoculation; read-out: efficacy
Summary of the method: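 This is a preventive spray test on gherkin seedlings, with compound formulated in DMSO/acetone/Tween 80 in water and solvent-only controls. Spore inoculation followed one day after treatment. Incubation lasted 8 days at 20 °C, 70–80% RH.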

Pyrenophora teres [5] = test: In vivo preventive test on Pyrenophora teres (net blotch on barley); conditions: 240 h, 500 ppm of active ingredient, preventive spray on barley, evaluated 10 days after inoculation, read-out: efficacy
Procedure: B-3. In Vivo Preventive Test on Pyrenophora Teres (Net Blotch on Barley) [table] The active ingredients were made soluble and homogenized in a mixture of Dimethyl sulfoxide/Acetone/Tween® 80 and then diluted in water to the desired concentration. The young plants of barley were treated by spraying the active ingredient prepared as described above. Control plants were treated only with an aqueous solution of Acetone/Dimethyl sulfoxide/Tween® 80. After 24 hours, the plants were contaminated by spraying the leaves with an aqueous suspension of Pyrenophora teres spores. The contaminated barley plants were incubated for 48 hours at 20° C. and at 100% relative humidity and then for 8 days at 20° C. and at 70-80% relative humidity.

Botrytis cinerea [6] = test: B-11. Botrytis cinerea in vitro cell test; assay type: cell-based; conditions: 144 h, 20 ppm of active ingredient, 6 days incubation, liquid culture, absorbance, read-out: efficacy (inhibition of fungal growth)
Summary of the method: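 B. cinerea spores were grown in liquid culture with compound (DMSO ≤1% final). Mycelium growth was measured spectrometrically after 6 days, with inhibition taken as absorbance relative to untreated control wells.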

Pyrenophora teres [7] = test: B-10. Pyrenophora teres in vitro cell test; assay type: cell-based; conditions: 144 h, 20 ppm of active ingredient, 6 days incubation, liquid culture, absorbance, read-out: efficacy (inhibition of fungal growth)
Summary of the method: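 Liquid-culture assay on a P. teres spore suspension with compounds added to the medium from DMSO solutions, final DMSO ≤1%. Mycelium growth read spectrometrically after 6 days. Inhibition calculated from absorbance against untreated control wells.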

| SMILES | pest or weed control at 500 ppm (Alternaria brassicae) | pest or weed control at 500 ppm (Botrytis cinerea [1]) | inhibition at 20 ppm (Alternaria alternata) | inhibition at 20 ppm [2] | chromatographic logP [3] | pest or weed control at 500 ppm [4] | pest or weed control at 500 ppm (Sphaerotheca fuliginea) | pest or weed control at 500 ppm (Pyrenophora teres [5]) | inhibition at 20 ppm (Botrytis cinerea [6]) | inhibition at 20 ppm (Pyrenophora teres [7]) |
| --- | --- | --- | --- | --- | --- | --- | --- | --- | --- | --- |
| Cc1ccc2c(C(=O)NC[C@H](F)c3ccc(Br)cc3Cl)c(Oc3cccc(C(F)(F)F)c3)nnc2c1 (racemic) [I-046] | 90 to 100% | 90 to 100% | 90 to 100% | 90 to 100% | 4.57 | 90 to 100% | 90 to 100% |  |  |  |
| Cc1ccc2c(C(=O)NC[C@H](F)c3ccc(Cl)cc3Cl)c(Oc3cccc(C(F)(F)F)c3)nnc2c1 (racemic) [I-047] | 90 to 100% | 90 to 100% | 90 to 100% | 90 to 100% | 4.45 |  | 90 to 100% | 80 to 89% |  |  |
| Cc1cc(C(F)F)ccc1[C@@H](F)CNC(=O)c1c(Oc2cccc(Cl)c2)nnc2ccccc12 (racemic) [I-049] | 90 to 100% | 90 to 100% | 90 to 100% | 90 to 100% | 3.84 |  |  | 80 to 89% | 90 to 100% |  |
| Cc1ccc([C@@H](F)CNC(=O)c2c(Oc3cccc(Cl)c3)nnc3ccccc23)c(Cl)c1 (racemic) [I-052] | 90 to 100% | 90 to 100% | 90 to 100% | 90 to 100% | 4.19 | 90 to 100% | 90 to 100% |  | 90 to 100% |  |
| Cc1ccc([C@@H](F)CNC(=O)c2c(Oc3cccc(C(F)(F)F)c3)cnc3ccccc23)cc1C (racemic) [I-056] | 90 to 100% | 90 to 100% | 90 to 100% | 90 to 100% | 4.33 | 90 to 100% | 90 to 100% |  | 90 to 100% |  |
| Cc1ccc([C@@H](F)CNC(=O)c2c(Oc3cccc(C(F)(F)F)c3)cnc3ccccc23)c(Cl)c1 (racemic) [I-060] | 90 to 100% | 90 to 100% | 90 to 100% | 90 to 100% | 4.4 | 90 to 100% | 90 to 100% |  | 90 to 100% |  |
| Cc1cc(Cl)ccc1[C@@H](F)CNC(=O)c1c(Oc2cccc(C(F)(F)F)c2)cnc2ccccc12 (racemic) [I-061] | 90 to 100% | 90 to 100% | 90 to 100% | 90 to 100% | 4.47 | 70 to 79% | 90 to 100% |  | 90 to 100% |  |
| O=C(NCC(F)c1ccc(Cl)cc1Cl)c1c(Oc2cccc(C(F)(F)F)c2)nnc2c1OCCO2 (racemic) [I-101, N-[2-(2,4-dichlorophenyl)-2-fluoro-ethyl]-3-[3-(trifluoro-methyl)phenoxy]-6,7-dihydro-[1,4]dioxino[2,3-c]pyridazine-4-carboxamide] | 90 to 100% | 90 to 100% | 90 to 100% | 80 to 89% | 3.37 | 90 to 100% | 90 to 100% |  |  |  |
| Cc1ccc([C@H](C)NC(=O)c2c(Oc3cccc(C(F)(F)F)c3)nnc3c2OCCO3)cc1 (racemic) [I-102] | 90 to 100% | 90 to 100% | 90 to 100% | 90 to 100% | 3.02 | 90 to 100% | 90 to 100% |  |  |  |
| O=C(NC[C@H](F)c1ccc(Br)cc1Cl)c1c(Oc2cccc(C(F)(F)F)c2)nnc2c1OCCO2 (racemic) [I-105] | 90 to 100% | 90 to 100% | 90 to 100% | 90 to 100% | 3.48 | 90 to 100% | 90 to 100% |  |  |  |
| Cc1cccc(Oc2nnc3ccccc3c2C(=O)NCC(F)(F)c2ccc(Cl)cc2)c1 [I-014] | 90 to 100% | 90 to 100% | 90 to 100% | 90 to 100% | 3.87 |  | 90 to 100% | 70 to 79% |  |  |
| C=Cc1ccc(C(F)(F)CNC(=O)c2c(Oc3cccc(C(F)(F)F)c3)nnc3ccccc23)c(Cl)c1 [I-064] | 90 to 100% | 90 to 100% | 90 to 100% | 90 to 100% | 4.62 |  |  | 80 to 89% | 90 to 100% |  |
| O=C(NCC(F)(F)c1ccc(Br)cc1Cl)c1c(Oc2cccc(C(F)(F)F)c2)nnc2c1OCCO2 [I-103] | 80 to 89% | 90 to 100% | 90 to 100% | 90 to 100% | 3.6 | 80 to 89% | 90 to 100% |  |  |  |
| Cc1ccc(C(F)(F)CNC(=O)c2c(Oc3cccc(C(F)(F)F)c3)nnc3c2OCCO3)c(C)c1 [I-106] | 90 to 100% | 90 to 100% | 90 to 100% | 90 to 100% | 3.37 | 90 to 100% | 90 to 100% |  |  |  |
| Cc1ccc(C(F)(F)CNC(=O)c2c(Oc3cccc(C(F)(F)F)c3)nnc3c2CC(O)CC3)c(C)c1 (stereo not shown) [I-117] | 70 to 79% | 90 to 100% | 90 to 100% | 90 to 100% | 3.18 | 90 to 100% | 90 to 100% |  | 90 to 100% |  |
| Cc1ccc(C(F)(F)CNC(=O)c2c(Oc3cccc(C(F)(F)F)c3)nnc3cnccc23)c(C)c1 [I-162] | 90 to 100% |  | 90 to 100% | 90 to 100% | 4.15 |  |  | 70 to 79% | 90 to 100% | 90 to 100% |
| Cc1ccc(C(F)(F)CNC(=O)c2c(Oc3cccc(C(F)(F)F)c3)nnc3cc(F)ccc23)c(Cl)c1 [I-171] | 90 to 100% |  | 90 to 100% | 90 to 100% | 4.66 |  |  | 70 to 79% | 90 to 100% | 90 to 100% |
| CCN(CCc1ccccc1)C(=O)c1c(Oc2cccc(C(F)(F)F)c2)nnc2ccccc12 [I-205] |  | 80 to 89% |  |  | 4.28 |  | 70 to 79% | 80 to 89% |  |  |
| C=Cc1cccc(Oc2cnc3ccccc3c2C(=O)NCC(F)(F)c2ccc(C)cc2C)c1 [I-221] | 90 to 100% | 90 to 100% | 90 to 100% | 90 to 100% | 4.4 | 70 to 79% |  |  | 90 to 100% | 90 to 100% |
